Assay results as given in publication PMC12181260, “Design and synthesis of novel pyridopyrimidine moieties linked to coumarin ring of potentially active cytotoxic agents and their docking study” (Scientific Reports, 2025).
≈ marks a conversion by molar mass, not a printed value.

How the values were obtained:
WI-38 = assay: Cytotoxicity (anticancer screening) on WI-38; format: cell-based, human; settings: for IC50: WI-38, human lung fibroblast cell line, 72 h of incubation; for activity class against WI-38: SAR statement, four tested cell lines
Text: (§1) Keeping the aforementioned details in mind, the objective of this study was to synthesize new pharmaceuticals for anticancer assessment as a trial to produce newer antitumor drugs with increased activity and minimal adverse effects. Human hepatocellular liver carcinoma cell line (HepG2), human lung fibroblast cell line (WI-38), human breast adenocarcinoma cell line (MCF-7), and normal adult African green monkey kidney cell line (VERO) were the four different types of […] cell lines used to test the anticancer activity of all newly synthesized compounds (Fig. 5).
(§2) It was carried out according to the previously reported work[48].

MCF-7 = assay: Cytotoxicity (anticancer screening) on MCF-7; format: cell-based, human; settings: for IC50: MCF7, human breast adenocarcinoma cell line, 72 h of incubation; for activity class against MCF-7: SAR statement, four tested cell lines
Text: as §1, §2

HepG2 = assay: Cytotoxicity (anticancer screening) on HepG2; format: cell-based, human; settings: for IC50: HepG2, human hepatocellular liver carcinoma cell line, 72 h of incubation; for activity class against HepG2: SAR statement, four tested cell lines
Text: as §1, §2

VERO = assay: Cytotoxicity (anticancer screening) on VERO; format: cell-based; settings: Chlorocebus sabaeus, normal adult African green monkey kidney cell line, 72 h of incubation
Text: as §1, §2

| Compound | IC50 (WI-38) | IC50 (MCF-7) | IC50 (HepG2) | IC50 (VERO) | activity class against WI-38 (WI-38) | activity class against MCF-7 (MCF-7) | activity class against HepG2 (HepG2) |
| --- | --- | --- | --- | --- | --- | --- | --- |
| Cc1cc(=O)oc2c1ccc1[nH]c(=O)c(C#N)cc12 [Compound 11, 4-Methyl-2,8-dioxo-7,8-dihydro-2 H-pyrano[2,3-f]quinoline-9-carbonitrile] | 39.01 ± 0.07 µg/mL (≈ 155 µM) | 33.3 ± 1.06 µg/mL (≈ 132 µM) | 32.2 ± 1.22 µg/mL (≈ 128 µM) | 35.5 ± 0.01 µg/mL (≈ 141 µM) | – | – | – |
| Cc1cc(=O)oc2c3c(ccc12)Oc1nc(CC#N)nc2nc4c(c-3c12)CCCC4 [Compound 8, 2-(15-Methyl-13-oxo-8,9,10,11-tetrahydro-13 H-3,12-dioxa-4,6,7-triazanaphtho[3,2,1-no]tetraphen-5-yl)acetonitrile] | 7.5 ± 0.01 µg/mL (≈ 18.9 µM) | 5.1 ± 0.18 µg/mL (≈ 12.9 µM) | 4.9 ± 0.11 µg/mL (≈ 12.4 µM) | 5.7 ± 0.06 µg/mL (≈ 14.4 µM) | very strong (1–10 (very strong)) | very strong (1–10 (very strong)) | very strong (1–10 (very strong)) |
| CCOC(=O)c1cc2c(ccc3c(C)cc(=O)oc32)oc1=O [Compound 18, Ethyl 4-methyl-2,8-dioxo-2 H,8 H-pyrano[2,3-f]chromene-9-carboxylate] | 60.4 ± 0.03 µg/mL (≈ 201 µM) | 57 ± 1.23 µg/mL (≈ 190 µM) | 54 ± 0.22 µg/mL (≈ 180 µM) | 66.5 ± 1.02 µg/mL (≈ 221 µM) | – | – | – |
| Cc1cc(=O)oc2c1ccc1oc(=N)c(C(N)=O)cc12 [Compound 12, 8-Imino-4-methyl-2-oxo-2 H,8 H-pyrano[2,3-f]chromene-9-carboxamide] | 48.2 ± 1.04 µg/mL (≈ 178 µM) | 49.4 ± 0.19 µg/mL (≈ 183 µM) | 37.5 ± 1.13 µg/mL (≈ 139 µM) | 51.3 ± 1.05 µg/mL (≈ 190 µM) | – | – | – |
| Cc1cc(=O)oc2c1ccc1oc3nc(CC#N)nc(=N)c-3cc12 [Compound 4, 2-(11-Imino-4-methyl-2-oxo-2 H,11 H-pyrano[2’,3’:5,6]chromeno[2,3-d]pyrimidin-9-yl) acetonitrile] | 31 ± 0.01 µg/mL (≈ 97.4 µM) | 31.4 ± 0.11 µg/mL (≈ 98.7 µM) | 24.5 ± 0.11 µg/mL (≈ 77 µM) | 34.1 ± 0.15 µg/mL (≈ 107 µM) | – | – | – |
| Cc1cc(=O)oc2c3c(ccc12)Oc1nc(CC#N)nc2nc4c(c-3c12)CCC4 [Compound 7, 2-(14-Methyl-12-oxo-9,10-dihydro-8 H,12 H-3,11-dioxa-4,6,7-triazaindeno[6,5,4-no]tetraphen-5-yl)acetonitrile] | 9.9 ± 1.04 µg/mL (≈ 25.9 µM) | 9.5 ± 0.04 µg/mL (≈ 24.8 µM) | 9.6 ± 1.22 µg/mL (≈ 25.1 µM) | 11.5 ± 0.05 µg/mL (≈ 30.1 µM) | very strong (1–10 (very strong)) | very strong (1–10 (very strong)) | very strong (1–10 (very strong)) |
| Cc1cc(=O)oc2c1ccc1oc(=N)c(C#N)cc12 [Compound 3, 8-imino-4-methyl-2-oxo-2 H,8 H-pyrano[2,3-f]chromene-9-carbonitrile] | 68.2 ± 0.07 µg/mL (≈ 270 µM) | 70 ± 0.06 µg/mL (≈ 278 µM) | 59 ± 0.22 µg/mL (≈ 234 µM) | 71.02 ± 0.05 µg/mL (≈ 282 µM) | – | – | – |
| Cc1cc(=O)oc2c1ccc1oc(=O)c(C#N)cc12 [Compound 15, 4-Methyl-2,8-dioxo-2 H,8 H-pyrano[2,3-f]chromene-9-carbonitrile] | 38 ± 1.22 µg/mL (≈ 150 µM) | 37.03 ± 0.04 µg/mL (≈ 146 µM) | 35.2 ± 1.13 µg/mL (≈ 139 µM) | 40.3 ± 1.19 µg/mL (≈ 159 µM) | – | – | – |
| Cc1cc(=O)oc2c3c(ccc12)Oc1nc(CC#N)nc2nc(-c4ccccc4)cc-3c12 [Compound 6, 2-(10-Methyl-12-oxo-2-phenyl-12 H-7,13-dioxa-3,4,6-triazabenzo[no]tetraphene-5-yl) acetonitrile] | 26 ± 0.21 µg/mL (≈ 62.1 µM) | 22.5 ± 0.04 µg/mL (≈ 53.8 µM) | 19.1 ± 1.13 µg/mL (≈ 45.6 µM) | 24.1 ± 0.19 µg/mL (≈ 57.6 µM) | – | – | – |
| O=c1[nH]cc(F)c(=O)[nH]1 [Compound 5-Flu, 5-fluorouracil, reference compound] | 5.5 µg/mL (≈ 42.3 µM) | 3 ± 0.02 µg/mL (≈ 23.1 µM) | 2.5 ± 1.03 µg/mL (≈ 19.2 µM) | 4 ± 0.04 µg/mL (≈ 30.8 µM) | – | – | – |
| Cc1cc(=O)oc2c1ccc1oc(=N)c3c(=O)oc4c(c3c12)CCC4 [Compound 17, 3-Imino-7-methyl-3,11,12,13-tetrahydro-2 H,9 H-cyclopenta[5,6]pyrano[3,4-c]pyrano [2,3-f]chromene-2,9-dione] | 53.5 ± 0.1 µg/mL (≈ 160 µM) | 52.5 ± 0.18 µg/mL (≈ 157 µM) | 40.2 ± 0.23 µg/mL (≈ 120 µM) | 56.2 ± 1.06 µg/mL (≈ 168 µM) | – | – | – |
| Cc1cc(=O)oc2c3c(ccc12)Oc1nc(CC#N)nc2nc(N)c(C#N)c-3c12 [Compound 5, 2-amino-5-(cyanomethyl)-10-methyl-12-oxo-12 H-7,13-dioxa-3,4,6-triazabenzo[no]tetraphene-1-carbonitrile] | 27.5 ± 0.31 µg/mL (≈ 71.9 µM) | 30 ± 1.01 µg/mL (≈ 78.5 µM) | 21.2 ± 1.22 µg/mL (≈ 55.4 µM) | 31.2 ± 0.02 µg/mL (≈ 81.6 µM) | – | – | – |
| Cc1cc(=O)oc2c3c(ccc12)OC(N)=C1C(=O)NC2=C(CCC2)C13 (centres unmarked) [Compound 14, 3-Amino-7-methyl-10c,11,12,13-tetrahydro-9 H-cyclopenta[b]pyrano [2’,3’:5,6]chromeno [4,3-d]pyridine-2,9(1 H)-dione] | 56 ± 0.32 µg/mL (≈ 166 µM) | 52 ± 0.01 µg/mL (≈ 155 µM) | 49 ± 1.22 µg/mL (≈ 146 µM) | 58 ± 1.02 µg/mL (≈ 172 µM) | – | – | – |
| Cc1cc(=O)oc2c3c(ccc12)Oc1nc(CC#N)nc2nc4c(c-3c12)CCCCC4 [Compound 9, 2-(16-Methyl-14-oxo-9,10,11,12-tetrahydro-8 H,14 H-3,13-dioxa-4,6,7-triazacyclohepta[4,5]benzo[1,2,3-no]tetraphen-5-yl)acetonitrile] | 5.9 ± 0.03 µg/mL (≈ 14.4 µM) | 7.2 ± 1.02 µg/mL (≈ 17.5 µM) | 5.4 ± 1.22 µg/mL (≈ 13.2 µM) | 6.6 ± 0.02 µg/mL (≈ 16.1 µM) | very strong (1–10 (very strong)) | very strong (1–10 (very strong)) | very strong (1–10 (very strong)) |
| Cc1cc(=O)oc2c3c(ccc12)NC(=O)C1=C(N)OC2=C(CCC2)C13 (centres unmarked) [Compound 13, 2-Amino-7-methyl-10c,11,12,13-tetrahydro-3 H-cyclopenta[5,6]pyrano[3,4-c]pyrano[2,3-f]quinoline-3,9(4 H)-dione] | 56 ± 1.14 µg/mL (≈ 166 µM) | 53 ± 0.19 µg/mL (≈ 158 µM) | 45.2 ± 1.13 µg/mL (≈ 134 µM) | 58.2 ± 1.05 µg/mL (≈ 173 µM) | – | – | – |
| Cc1cc(=O)oc2c3c(ccc12)Oc1nc(CC#N)nc2nc4c(c-3c12)CCCCCC4 [Compound 10, 2-(17-Methyl-15-oxo-8,9,10,11,12,13-hexahydro-15 H-3,14-dioxa-4,6,7-triazacycloocta[4,5]benzo[1,2,3-no]tetraphen-5-yl)acetonitrile] | 7.8 ± 0.1 µg/mL (≈ 18.4 µM) | 8.9 ± 1.02 µg/mL (≈ 21 µM) | 5.8 ± 1.03 µg/mL (≈ 13.7 µM) | 8.2 ± 1.04 µg/mL (≈ 19.3 µM) | very strong (1–10 (very strong)) | very strong (1–10 (very strong)) | very strong (1–10 (very strong)) |
| CCOC(=O)c1cc2c(ccc3c(C)cc(=O)oc32)oc1=N [Compound 16, ethyl 8-imino-4-methyl-2-oxo-2 H,8 H-pyrano[2,3-f]chromene-9-carboxylate] | 59.3 ± 1.04 µg/mL (≈ 198 µM) | 52.1 ± 0.04 µg/mL (≈ 174 µM) | 52.5 ± 1.22 µg/mL (≈ 175 µM) | 57.5 ± 0.05 µg/mL (≈ 192 µM) | – | – | – |
